In the NIST ThermoML archive (doi:10.1021/je200868y):
Numbers after ± are expanded uncertainties.

Settings: Liquid; for mass density: 298.15 K, 101.33 kPa, Vibrating tube method

| mass density | vapor or sublimation pressure (329.69 K) | vapor or sublimation pressure (336.07 K) | vapor or sublimation pressure (341.23 K) | vapor or sublimation pressure (345.6 K) | vapor or sublimation pressure (349.39 K) | vapor or sublimation pressure (351.44 K) | vapor or sublimation pressure (408.31 K) | vapor or sublimation pressure (417.74 K) | vapor or sublimation pressure (425.39 K) | vapor or sublimation pressure (431.86 K) | vapor or sublimation pressure (437.53 K) | vapor or sublimation pressure (440.57 K) | SMILES | vapor or sublimation pressure (379.81 K) | vapor or sublimation pressure (388.96 K) | vapor or sublimation pressure (396.45 K) | vapor or sublimation pressure (402.82 K) | vapor or sublimation pressure (408.4 K) | vapor or sublimation pressure (411.48 K) |
| --- | --- | --- | --- | --- | --- | --- | --- | --- | --- | --- | --- | --- | --- | --- | --- | --- | --- | --- | --- |
| 785.18 ± 0.15 kg/m3 | 40 ± 1.5 kPa | 53.33 ± 2 kPa | 66.66 ± 2.4 kPa | 79.99 ± 2.8 kPa | 93.32 ± 3.2 kPa | 101.3 ± 3.4 kPa |  |  |  |  |  |  | CCO [ethanol] |  |  |  |  |  |  |
| 865.59 ± 0.11 kg/m3 |  |  |  |  |  |  | 40 ± 1.5 kPa | 53.33 ± 2 kPa | 66.66 ± 2.4 kPa | 79.99 ± 2.8 kPa | 93.32 ± 3.2 kPa | 101.3 ± 3.4 kPa | CCCCCC(=O)OCC [ethyl hexanoate] |  |  |  |  |  |  |

| SMILES | mass density | vapor or sublimation pressure (329.69 K) | vapor or sublimation pressure (336.07 K) | vapor or sublimation pressure (341.23 K) | vapor or sublimation pressure (345.6 K) | vapor or sublimation pressure (349.39 K) | vapor or sublimation pressure (351.44 K) | vapor or sublimation pressure (408.31 K) | vapor or sublimation pressure (417.74 K) | vapor or sublimation pressure (425.39 K) | vapor or sublimation pressure (431.86 K) | vapor or sublimation pressure (437.53 K) | vapor or sublimation pressure (440.57 K) | vapor or sublimation pressure (379.81 K) | vapor or sublimation pressure (388.96 K) | vapor or sublimation pressure (396.45 K) | vapor or sublimation pressure (402.82 K) | vapor or sublimation pressure (408.4 K) | vapor or sublimation pressure (411.48 K) |
| --- | --- | --- | --- | --- | --- | --- | --- | --- | --- | --- | --- | --- | --- | --- | --- | --- | --- | --- | --- |
| Cc1ccc(C)cc1 [1,4-dimethylbenzene] | 856.68 ± 0.12 kg/m3 |  |  |  |  |  |  |  |  |  |  |  |  | 40 ± 1.5 kPa | 53.33 ± 2 kPa | 66.66 ± 2.4 kPa | 79.99 ± 2.8 kPa | 93.32 ± 3.2 kPa | 101.3 ± 3.4 kPa |
